Patent publication US20010014345A1, “MATERIAL, METHOD AND APPARATUS FOR INHIBITING BACTERIAL GROWTH IN AN AQUEOUS MEDIUM” (priority 1995, published 2001)
Several values for one entry are separate records, joined by “and”; a condition that tells them apart may be missing. Equal entries are not always repeated. Where two headings read alike, the source gives them in different places.

Tests used:
[1] = system: Pseudomonas aeruginosa; test: Biocide efficiency (B.E.) of immobilised biocides in recirculating column test; type: cell-based
[2] = physchem
[3] = system: Pseudomonas aeruginosa; test: Recirculating column test of immobilised biocide (active beads), viable bacterial counts / growth curve; type: cell-based; conditions: active beads on Amberlite XAD-4 or XAD-2, 10x1 cm column, after 24 hours, FIG. 2
[4] = Partition coefficients between octanol and water by UV/visible absorption
[5] = Presence or absence of free biocide in filter-sterilised culture after contact with active beads (MS and/or HPLC; leaching); type: physicochemical
[6] = column length 10 cm, biocide immobilised on Amberlite XAD-4, 24 h, 30° C., 13.5 ml/min

## O=[N+]([O-])C(Br)(CO)CO [Bronopol]
[1]; [6]
  B.E. (t-24 h): −0.80
[2]
  logP: 0.18

## CCCCCCCCCCCC[N+](C)(C)CCOc1ccccc1 [Domiphen]
[2]
  logP: 1.7

## CCCCCCCCn1sc2ccccc2c1=O [Compound 1, 2-n-octylbenzoisothiazolin-3-one]
[3]
  bacterial population versus blank bead controls: significantly lower
[1]; [6]
  B.E. (t-24 h): 0.48

## CCCCCCCCCCCCCCCCn1sc2ccccc2c1=O [Compound 2, 2-n-hexadecyl-benzoisothiazolin-3-one]
[1]; column length 10 cm, biocide immobilised on Amberlite XAD-2, 24 h, 30° C., 13.5 ml/min
  B.E. (t-24 h): 0.84
[1]; [6]
  B.E. (t-24 h): 0.68 and 1.02 and 0.82 and 0.91
[1]; column length 20 cm, biocide immobilised on Amberlite XAD-4, 24 h
  B.E. (t-24 h): 0.99 and 0.64 and 0.75
[1]; column length 30 cm, biocide immobilised on Amberlite XAD-4, 24 h
  B.E. (t-24 h): 0.64 and 0.86
[1]; column length 40 cm, biocide immobilised on Amberlite XAD-4, 24 h
  B.E. (t-24 h): 0.90

## Cn1sc2c(c1=O)CCC2 [Promexal]
[4]; 25° C., UV/visible absorption
  P (partition coefficient between octanol and water): ˜4.5
[4]; n-octanol/water
  logP: 0.6

## CCCCCCCCCCCCCCCCCCn1sc(Cl)cc1=O [Compound 4, 5-chloro-2-n-octadecyl-isothiazolin-3-one]
[1]
  B.E. (t-24 h): 0.70 and 0.82 and 0.73 and 0.99 and 0.98

## O=c1[nH]sc2ccccc12 [Proxel]
[2]
  logP: -1.3

## CCCCCCCCn1sccc1=O [Compound 5, 2-n-octyl-isothiazolin-3-one]
[1]
  B.E. (t-24 h): 0.80 and 0.60
[5]
  Present (MS): free biocide in solution: trace
